Measured values from patent publication US9376694B2, “Method for preparing optically active amino acid using cosubstrate shuttling of transaminase” (INDUSTRY-ACADEMIC COOPERATION FOUNDATION, YONSEI UNIVERSITY, priority 2012, dated 2016).
“And” between values parts separate entries of the source, which are not always exact repeats. Equal values may be shown once.

Columns and labels:
[1] = molecular target: T1, branched-chain transaminase (Escherichia coli, UniProt P0AB80); experiment: Substrate specificity of purified branched-chain transaminase for amino acids with trimethylpyruvate; format: biochemical, E. coli; details: purified enzyme (6 U/mL); 20 mM trimethylpyruvate, 20 mM L-amino acid, pH 7.0, 37° C., 6 hours
T1 construct: made in house; host or cells: E. coli BL21(DE3)
T1 sequence (P0AB80 whole entry): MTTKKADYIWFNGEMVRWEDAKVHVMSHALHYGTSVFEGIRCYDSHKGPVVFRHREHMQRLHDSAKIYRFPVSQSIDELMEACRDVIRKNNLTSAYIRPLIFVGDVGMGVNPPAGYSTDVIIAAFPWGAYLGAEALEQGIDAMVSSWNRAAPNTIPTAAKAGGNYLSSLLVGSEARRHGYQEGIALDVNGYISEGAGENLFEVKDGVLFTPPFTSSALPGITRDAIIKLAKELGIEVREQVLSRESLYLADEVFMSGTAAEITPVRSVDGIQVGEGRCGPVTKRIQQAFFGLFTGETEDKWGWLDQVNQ
Experimental: Reaction was conducted using the branched-chain transaminase purified in Example 3 and using various L-amino acids and trimethylpyruvate as substrates as described in [Table 4]. After adding 10 μL of the purified enzyme (6 U/mL) to 100 μL of a mixture of 20 mM trimethylpyruvate, 20 mM L-amino acid and 50 mM potassium phosphate (pH 7.0), reaction was conducted at 37° C. for 6 hours and the amount of produced L-tert-leucine was measured. The result is shown in [Table 4].

[2] = system: ω-transaminase derived from Paracoccus denitrificans (PdwTA); experiment: Substrate specificity of purified ω-transaminase for amino acids (glyoxylate acceptor), PdwTA; format: biochemical; details: purified enzyme (5 U/mL); 20 mM glyoxylate, 20 mM L-amino acid, pH 7.0, 37° C., 6 hours; reaction conducted 3 times
Experimental: (§1) Reaction was conducted using the ω-transaminase purified in Example 3 and using various L-amino acids and […] as substrates as described in [Table 5]. After adding 10 μL of the purified enzyme (5 U/mL) to 100 μL of a mixture of 20 mM glyoxylate, 20 mM L-amino acid and 50 mM potassium phosphate (pH 7.0), reaction was conducted at 37° C. for 6 hours and the amount of produced L-glycine was measured. The reaction was conducted 3 times and the result was compared with that of the ω-transaminase derived from Ochrobactrum anthropi. The result is shown in [Table 5].

[3] = system: ω-transaminase derived from Ochrobactrum anthropi; experiment: Substrate specificity of purified ω-transaminase for amino acids (glyoxylate acceptor), OawTA; format: biochemical; details: 20 mM glyoxylate, 20 mM L-amino acid, pH 7.0, 37° C., 6 hours
Experimental: as §1

[4] = system: ω-transaminase derived from Paracoccus denitrificans (PdwTA); experiment: Substrate specificity of purified ω-transaminase for keto acids in initial stage of reaction, PdwTA; format: biochemical; set-up: unit not given here; details: purified enzyme (1 U/mL); 20 mM keto acid, 20 mM (S)-α-methylbenzylamine, pH 7.0, 37° C., 10 minutes
Experimental: (§2) Reaction was conducted using the ω-transaminase purified in Example 3 and using various keto acids and amine as substrates as described in [Table 7]. After adding 10 μL of the purified enzyme (1 U/mL) to 100 μL of a mixture of 20 mM keto acid, 20 mM (S)-α-methylbenzylamine and 50 mM potassium phosphate (pH 7.0), reaction was conducted at 37° C. for 10 minutes and the amount of produced acetophenone (deaminated ketone of (S)-α-methylbenzylamine) was measured. The result was compared with that of the ω-transaminase derived from Ochrobactrum anthropi. The result is shown in [Table 7].

[5] = system: ω-transaminase derived from Ochrobactrum anthropi; experiment: Substrate specificity of purified ω-transaminase for keto acids in initial stage of reaction, OawTA; format: biochemical; set-up: unit not given here; details: 20 mM keto acid, 20 mM (S)-α-methylbenzylamine, pH 7.0, 37° C., 10 minutes
Experimental: as §2

[6] = system: ω-transaminase derived from Paracoccus denitrificans (PdwTA); experiment: Substrate specificity of purified ω-transaminase for keto acids, PdwTA; format: biochemical; details: purified enzyme (6 U/mL); 20 mM keto acid, 20 mM (S)-α-methylbenzylamine, pH 7.0, 37° C., 6 hours
Experimental: (§3) Reaction was conducted using the ω-transaminase purified in Example 3 and using various keto acids and amine as substrates as described in [Table 6]. After adding 10 μL of the purified enzyme (6 U/mL) to 100 μL of a mixture of 20 mM keto acid, 20 mM (S)-α-methylbenzylamine and 50 mM potassium phosphate (pH 7.0), reaction was conducted at 37° C. for 6 hours and the amount of produced acetophenone (deaminated ketone of (S)-α-methylbenzylamine) was measured. The result was compared with that of the ω-transaminase derived from Ochrobactrum anthropi. The result is shown in [Table 6].

[7] = system: ω-transaminase derived from Ochrobactrum anthropi; experiment: Substrate specificity of purified ω-transaminase for keto acids, OawTA; format: biochemical; details: 20 mM keto acid, 20 mM (S)-α-methylbenzylamine, pH 7.0, 37° C., 6 hours
Experimental: as §3

[8] = molecular target: T1, branched-chain transaminase; experiment: Substrate specificity of branched-chain transaminase for amino acids, enzyme-containing crude extract; format: biochemical, E. coli; details: 20 mM L-amino acid, pH 7.0, 37° C., 30 minutes
Experimental: Reaction was conducted using the crude extract containing the branched-chain transaminase obtained in Example 3 and using various L-amino acids and keto acids described in [Table 1] as substrates. After adding 20 μL of the crude extract to 200 μL of a mixture of 20 mM L-amino acid, 20 mM keto acid and 50 mM potassium phosphate (pH 7.0), reaction was conducted at 37° C. for 30 minutes and the amount of produced L-amino acid was measured. The result is shown in [Table 1].

[9] = molecular target: T1, branched-chain transaminase; experiment: Substrate specificity of branched-chain transaminase for amino acids with trimethylpyruvate, crude extract; format: biochemical, E. coli; details: 20 mM trimethylpyruvate, 20 mM L-amino acid, pH 7.0, 37° C., 2 hours
Experimental: Reaction was conducted using the crude extract containing the branched-chain transaminase obtained in Example 3 and using various trimethylpyruvate (keto acid of L-tert-leucine) as substrates. After adding 100 μL of the crude extract to 200 μL of a mixture of 20 mM trimethylpyruvate, 20 mM L-amino acid and 50 mM potassium phosphate (pH 7.0), reaction was conducted at 37° C. for 2 hours and the amount of produced L-tert-leucine was measured. The result is shown in [Table 2].

[10] = molecular target: T1, branched-chain transaminase; experiment: Substrate specificity of purified branched-chain transaminase for keto acids; format: biochemical, E. coli; details: for Concentration of 2-oxobutyrate: purified enzyme (1 U/mL), 20 mM L-homoalanine, 20 mM keto acid, pH 7.0, 37° C., 7 hours
Experimental: Reaction was conducted using the branched-chain transaminase purified in Example 3 and using various L-amino acids and keto acids described in [Table 3] as substrates. After adding 10 μL of the purified enzyme (1 U/mL) to 100 μL of a mixture of 20 mM L-homoalanine, 20 mM keto acid and 50 mM potassium phosphate (pH 7.0), reaction was conducted at 37° C. for 7 hours and the amount of produced 2-oxobutyrate (keto acid of L-homoalanine) was measured. The result is shown in [Table 3].
When trimethylpyruvate and L-homoalanine were used as substrates, the equilibrium constant of the reaction by the branched-chain transaminase was very low at 0.16.

[11] = 20 mM α-ketoglutarate as keto acid

Row | Compound | Concentration of L-tert-leucine [1] | Concentration of L-glycine, PdwTA [2] | Concentration of L-glycine, OawTA [3] | amount of produced acetophenone, PdwTA [4] | amount of produced acetophenone, OawTA [5] | further results
1 | CC(C)C[C@H](N)C(=O)O [L-Leucine] | 6.71 mM and 6.32 mM and 7.06 mM | 7.93 mM and 7.95 mM and 5.71 mM | 0.00 mM |  |  | 
2 | O=CC(=O)O [Gyloxylate] |  |  |  | 1.076 | 1.733 | 
3 | O=C(O)C(=O)CF [Fluoropyruvate] |  |  |  | 0.339 | 0.554 | 
4 | O=C(O)C(=O)CS [Mercaptopyruvate] |  |  |  | 0.008 | 0.012 | 
5 | CCC[C@H](N)C(=O)O [L-Norvaline] | 6.31 mM and 5.34 mM and 6.06 mM | 13.43 mM and 14.29 mM and 14.12 mM | 0.36 mM |  |  | 
6 | O=C(O)C(=O)CO [β-Hydroxypyruvate] |  |  |  | 0.066 | 0.183 | 
7 | CCC(=O)C(=O)O [2-Oxobutyrate] |  |  |  | 0.821 | 0.173 | Concentration of acetophenone, PdwTA [6]: 5.03 mM; Concentration of acetophenone, OawTA [7]: 5.05 mM
8 | CCCC(=O)C(=O)O [2-Oxopentanoic acid] |  |  |  | 1.332 | 0.378 | Concentration of acetophenone, PdwTA [6]: 5.24 mM; Concentration of acetophenone, OawTA [7]: 3.45 mM
9 | CC(C)[C@H](N)C(=O)O [L-Valine] | 6.31 mM and 5.04 mM and 6.23 mM | 0.18 mM and 0.20 mM and 0.17 mM | 0.00 mM |  |  | Production amount of L-amino acid [8, 11]: 1.6 mM; Production amount of L-tert-leucine [9]: 7.8 mM
10 | CC(C)C(=O)C(=O)O [3-Methyl-2-oxobutyrate] |  |  |  |  |  | Concentration of 2-oxobutyrate [10]: 11.93 mM; Concentration of acetophenone, PdwTA [6]: 0.00 mM; Concentration of acetophenone, OawTA [7]: 0.00 mM
11 | N[C@@H](CCC(=O)O)C(=O)O [L-Glutamate] |  |  |  |  |  | Production amount of L-amino acid ([8]; 20 mM 2-oxobutyrate as keto acid): 4.2 mM; Production amount of L-tert-leucine [9]: 6.4 mM
12 | O=C(O)C(=O)C12CC3CC(CC(O)(C3)C1)C2 [2-(3-Hydroxy-1-adamantyl)-2-oxoethanoic acid] |  |  |  |  |  | Concentration of 2-oxobutyrate [10]: 5.47 mM
13 | CCC(C)C(=O)C(=O)O (centres unmarked) [3-Methyl-2-oxoxpentanoic acid] |  |  |  |  |  | Concentration of 2-oxobutyrate [10]: 8.49 mM; Concentration of acetophenone, PdwTA [6]: 0.00 mM; Concentration of acetophenone, OawTA [7]: 0.00 mM
14 | CC[C@H](N)C(=O)O [L-Homoalanine] | 5.57 mM and 4.43 mM and 5.71 mM | 12.56 mM and 13.31 mM and 11.26 mM | 4.97 mM |  |  | Production amount of L-amino acid [8, 11]: 0.1 mM; Production amount of L-tert-leucine [9]: 7.2 mM
15 | CC[C@H](C)[C@H](N)C(=O)O [L-Isoleucine] | 7.79 mM and 7.48 mM and 6.51 mM | 0.00 mM | 0.00 mM |  |  | Production amount of L-amino acid [8, 11]: 2.6 mM; Production amount of L-tert-leucine [9]: 9.2 mM
16 | CCCCC(=O)C(=O)O [2-Oxohexanoic acid] |  |  |  | 0.713 | 0.006 | Concentration of acetophenone, PdwTA [6]: 5.22 mM; Concentration of acetophenone, OawTA [7]: 3.07 mM
17 | C[C@H](N)C(=O)O [L-Alanine] | 2.24 mM and 2.07 mM and 2.23 mM | 13.92 mM and 13.31 mM and 11.61 mM | 11.73 mM |  |  | Production amount of L-tert-leucine [9]: 0.8 mM
18 | CCCC[C@H](N)C(=O)O [L-Norleucine] | 5.90 mM and 5.48 mM and 5.55 mM | 13.41 mM and 12.97 mM and 12.59 mM | 0.28 mM |  |  | 
19 | CC(C)(C)C(=O)C(=O)O [Trimethylpyruvate] |  |  |  |  |  | Concentration of 2-oxobutyrate [10]: 5.83 mM; equilibrium constant of the reaction by the branched-chain transaminase ([10]; trimethylpyruvate and L-homoalanine as substrates): 0.16
20 | CC(C)(C)[C@H](N)C(=O)O [L-tert-Leucine] |  |  |  |  |  | Production amount of L-amino acid [8, 11]: 0.06 mM
21 | CC(C)CC(=O)C(=O)O [4-Methyl-2-oxopentanoic acid] |  |  |  | 0.175 | 0.005 | Concentration of 2-oxobutyrate [10]: 7.27 mM; Concentration of acetophenone, PdwTA [6]: 4.99 mM; Concentration of acetophenone, OawTA [7]: 0.03 mM
